Holding throughout (experiment): growth of human tumour cells (NCI), 48 h
Assay [1] has as its system KM12.
Assay [2] relates to NCI-H23.
The subject of assay [3] is MCF7.
For assay [4], the system named is SK-MEL-28.
For assay [5], the system named is U-251.
Assay [6] relates to A549.
Assay [7] has as its system CCRF-CEM.
The subject of assay [8] is MOLT-4.
Assay [9] has as its system NCI-H522.
For assay [10], the system named is COLO 205.
Assay [11] concerns SK-MEL-2.
In assay [12] the test system is UACC-257.
The test system of assay [13] is LOX IMVI.
Assay [14] relates to HL-60.
Assay [15] deals with SN12C.
For assay [16], the system named is SK-MEL-5.
In assay [17] the test system is MDA-MB-435.
The test system of assay [18] is ACHN.
For assay [19], the system named is SNB-75.
Assay [20] has as its system NCI-H226.

Molecules are shown by their SMILES.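 Method: 48-hour compound exposure of cells in 96-well plates, five concentrations, linear interpolation of endpoints. Here, GI50 denotes the concentration required for 50% inhibition of growth.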 Calls of active or inactive are those of the source. Cut-off read from the data, not from the text of the source: active = GI50 up to about 1.1 µM and inactive = higher.

Turning to `O=C1CSC2=NC3=C(CSC/C3=C\c3ccc(Cl)cc3)C(c3ccc(Cl)cc3)N12` (stereo not given), the GI50 in assay [1] is 8.04 µM (inactive); in assay [2] it was 19.9 µM (inactive); in [3] it was 19.3 µM (inactive); in assay [4], 27 µM (inactive); in [5] it was > 10 µM (inactive); in [6], 6.87 µM (inactive). The GI50 is 14.6 µM (inactive) in assay [7]; 9.08 µM (inactive) in [8]; 12.5 µM (inactive) in assay [9]; 33.1 µM (inactive) in [10]; 25.3 µM (inactive) in assay [11]; 28.2 µM (inactive) in assay [12]. In addition, the GI50 in assay [13] is 12.3 µM (inactive); in assay [14] it was 22.2 µM (inactive); in assay [15], 12.4 µM (inactive); in [16], 14.4 µM (inactive); in assay [17], 25.1 µM (inactive); in assay [18] it was 16.9 µM (inactive).
Consider `O=C(c1ccccc1)c1ccc(N2C(=O)/C(=C/Cc3ccco3)N=C2c2ccccc2)c(N2C(=O)/C(=C/Cc3ccco3)N=C2c2ccccc2)c1`, for which the GI50 was 28.4 µM (inactive) in assay [1]; 52 µM (inactive) in [3]; 28.1 µM (inactive) in assay [19]; > 100 µM (inactive) in assay [4]; 18.8 µM (inactive) in [5]; 35.8 µM (inactive) in [6]. Besides, the GI50 was 11.1 µM (inactive) in [7]; 18.8 µM (inactive) in [8]; 38.6 µM (inactive) in [10]; 25.5 µM (inactive) in [11]; 47.1 µM (inactive) in [12]; 24.2 µM (inactive) in assay [13]. In addition, the GI50 is 15.3 µM (inactive) in [14]; 71.6 µM (inactive) in [15]; 26.1 µM (inactive) in assay [16]; 29.2 µM (inactive) in [17]; 33 µM (inactive) in [18].
Consider `CC1=C2C(=O)c3ccccc3C(=O)[C@H]2C[C@@H](N2CCCC2=O)O1`, for which the GI50 in [1] is 77.6 µM (inactive); in [2], 21.9 µM (inactive); in assay [3], 12.9 µM (inactive); in assay [19], 15.3 µM (inactive); in [4], 54.7 µM (inactive); in assay [5], 28 µM (inactive). The GI50 was 43.1 µM (inactive) in [6]; 32.4 µM (inactive) in assay [7]; 32.1 µM (inactive) in [8]; 79.8 µM (inactive) in assay [9]; 79.1 µM (inactive) in assay [10]; > 100 µM (inactive) in [11]. For the same molecule, the GI50 in assay [12] was 65.6 µM (inactive); in [13], 20.2 µM (inactive); in assay [14] it was 40.8 µM (inactive); in [15], 53.2 µM (inactive); in assay [16], 17.1 µM (inactive); in assay [17], 18.5 µM (inactive). Further, the GI50 in [18] is 90.6 µM (inactive).
On to `COc1cc(C(N)=O)cc(NC(=O)/C=C/c2ccccc2)c1OC`, for which the GI50 in assay [1] was > 100 µM (inactive); in assay [2], > 100 µM (inactive); in assay [3] it was > 100 µM (inactive); in [19], 19.7 µM (inactive); in [4], > 100 µM (inactive); in [5], > 100 µM (inactive). Moreover, the GI50 was > 100 µM (inactive) in assay [6]; > 100 µM (inactive) in [7]; > 100 µM (inactive) in assay [8]; 64.9 µM (inactive) in assay [9]; > 100 µM (inactive) in [10]; > 100 µM (inactive) in assay [11]. For the same molecule, the GI50 in assay [12] is > 100 µM (inactive); in assay [13], > 100 µM (inactive); in [14], > 100 µM (inactive); in assay [15], > 100 µM (inactive); in [16] it was 64.7 µM (inactive); in [17], > 100 µM (inactive). The GI50 in [18] is > 100 µM (inactive).
In the case of `O=c1c(-c2ccc3c(c2)OCO3)coc2c3c(ccc12)OCO3`, the GI50 in assay [1] was 30.8 µM (inactive); in assay [2], 19.2 µM (inactive); in [3], 15.9 µM (inactive); in assay [19], 23 µM (inactive); in assay [4], 24.3 µM (inactive); in [5], 37.6 µM (inactive). The GI50 in assay [6] was 49.9 µM (inactive); in assay [7] it was > 100 µM (inactive); in assay [8], > 100 µM (inactive); in assay [9], 18.3 µM (inactive); in assay [10], > 100 µM (inactive); in [11], 95.9 µM (inactive). The GI50 in assay [12] was 53.1 µM (inactive); in assay [13] it was 45.2 µM (inactive); in assay [14] it was > 100 µM (inactive); in [15], 41.8 µM (inactive); in [16], > 100 µM (inactive); in assay [17], > 100 µM (inactive). Besides, in assay [18], the GI50 was 18.5 µM (inactive).
Take `C=C[C@@]1(C)CC(=O)[C@]2(O)[C@@]3(C)[C@@H](OC(C)=O)CCC(C)(C)[C@@H]3[C@H](O)[C@H](OC(C)=O)[C@@]2(C)O1`: the GI50 in assay [1] was 13.4 µM (inactive); in assay [2] it was > 100 µM (inactive); in assay [3], > 100 µM (inactive); in assay [19], 27.6 µM (inactive); in assay [4], > 100 µM (inactive); in assay [5], > 100 µM (inactive). Further, the GI50 in assay [6], in assay [8], in assay [11], in [20], in assay [12] and in assay [13] was > 100 µM (inactive) in each case. The GI50 in assay [15], in [17] and in [18] was > 100 µM (inactive) in each case.
`O=c1cc2oc3ccc4ccccc4c3cc-2c(=O)[nH]1`: the GI50 in [1] was 20 µM (inactive); in [2], 1.42 µM (inactive); in assay [3] it was 19.1 µM (inactive); in [4] it was 17.9 µM (inactive); in assay [5], 10.2 µM (inactive); in assay [6], 21 µM (inactive). Besides, the GI50 in assay [7] was 1.07 µM (active); in assay [8], 2.25 µM (inactive); in assay [9], 9.12 µM (inactive); in assay [10], 15.3 µM (inactive); in [11] it was 17.3 µM (inactive); in assay [12], 16.4 µM (inactive). For the same molecule, the GI50 in assay [13] was 7.71 µM (inactive); in assay [14], 1.51 µM (inactive); in [16] it was 15.5 µM (inactive); in assay [17] it was 11 µM (inactive); in [18], 17 µM (inactive).
On to `C=C1C2CCC3(CCC4C5(C)CCCC4(C=[N+](CCO)C5)C3C2)C1O` (stereo not given), for which the GI50 in [1], in assay [2], in [3], in [19], in assay [4] and in [5] was > 100 µM (inactive) throughout. For the same molecule, the GI50 in [6], in assay [7], in assay [9], in assay [10], in assay [11] and in [12] was > 100 µM (inactive) each time. Moreover, the GI50 in assay [13], in [14], in [15], in assay [16], in assay [17] and in assay [18] was > 100 µM (inactive) throughout.
`CC(C)C1=C(O)C(=O)C2=C(C1=O)C(O)CC1C(C)(C)CCCC21C` (stereo not given): the GI50 in assay [1] was 5.45 µM (inactive); in assay [2], 1.79 µM (inactive); in assay [3], 5.87 µM (inactive); in assay [19] it was 30.2 µM (inactive); in assay [4] it was 13.3 µM (inactive); in assay [5], 4.8 µM (inactive). Moreover, the GI50 in [6] was 4.56 µM (inactive); in assay [7], 6.71 µM (inactive); in assay [8] it was 25.8 µM (inactive); in [9], 21.6 µM (inactive); in [10] it was 12.8 µM (inactive); in [11] it was 2.84 µM (inactive). In addition, the GI50 in assay [12] was 11.3 µM (inactive); in [13] it was 25.1 µM (inactive); in [14], 14.9 µM (inactive); in assay [15] it was 7.26 µM (inactive); in [16], 2.43 µM (inactive); in assay [17] it was 3.4 µM (inactive). In addition, in [18], the GI50 is 3.85 µM (inactive).
With `O=C1c2ccccc2-c2ccc(/N=N/c3c(O)ccc4ccccc34)cc21`, the GI50 in [1], in assay [2], in assay [19], in assay [4], in assay [5] and in assay [6] was > 100 µM (inactive) throughout. Moreover, the GI50 in assay [7] is 15.4 µM (inactive); in assay [8], 41.8 µM (inactive); in assay [9] it was > 100 µM (inactive); in assay [10], > 100 µM (inactive); in assay [11], > 100 µM (inactive); in assay [20], > 100 µM (inactive). The GI50 in assay [12] is > 100 µM (inactive); in [13], > 100 µM (inactive); in [15], > 100 µM (inactive); in assay [16] it was > 100 µM (inactive); in [17] it was 33.6 µM (inactive).
On to `O=S1(=O)OCCOS(=O)(=O)C1(F)Cc1ccccc1`, for which the GI50 in assay [2], in [19], in [4], in [5], in assay [6] and in assay [7] was > 100 µM (inactive) throughout. Moreover, the GI50 in assay [8], in [9], in assay [10], in assay [11], in [20] and in assay [13] was > 100 µM (inactive) each time. Further, the GI50 in assay [14], in assay [15], in assay [16], in [17] and in [18] was > 100 µM (inactive) throughout.

(Values after ChEMBL document CHEMBL1201862, “PubChem BioAssay data set” (2004).)
